Values joined by “and” are separate entries in the source; they are usually repeats but may differ in a detail not shown here. Equal entries are not always repeated. Structures can show the parent of a compound that is named as a salt. Values belong to the compound of their own block, whether it stands above or below them.
Experiments:
[1] = system: eosinophil infiltration; assay: Murine model of Ascaris-induced bronchial inflammation: eosinophil infiltration into bronchoalveolar lavage fluid; type: in vivo; conditions: mouse
Protocol: The VLA-4 inhibitors may be further characterized in in vivo assays. One such assay examines the inhibition of eosinophil infiltration into the bronchoalveolar lavage fluid in the mouse (murine) model. In this assay, the animals are treated with cyclophosphamide on day 0. On days 2 and 14, the animals are immunized intraperitoneally with Ascaris suum extract. Seven days later, the animals are treated with various doses of the VLA-4 inhibitor. Shortly after drug administration, the animals are challenged with Ascaris suum extract by instillation into the trachea. Bronchoalveolar lavage of the animal is performed by instilling saline into the lung, 48 hours later. Total cell and eosinophil counts in the lavage are determined.

[2] = Pharmacokinetic evaluation in rat; type: in vivo; conditions: for AUC (total area under the plasma concentration versus time curve): LC/MS/MS; for clearance / MRT: plasma, 10 mg/kg; for clearance: read-out: CL (apparent plasma clearance); for MRT: read-out: MRT (mean residence time)
[3] = Mouse bio-assay: serum concentration after oral dosing, determined by direct binding assay of diluted serum
Protocol: (§1) A compound was dissolved or suspended with an appropriate solvent at 1 mg/mL. Female Balb/c mice (7–9 weeks old) were given the compound orally. Blood samples were collected from the postcaval vein of the anesthetized mice after fifteen minutes. Serum was prepared and stored at −20° C. Serum concentration of the compound was determined from inhibitory activities of the diluted serum by a direct binding assay using VLA-4-expressing cells and VCAM-IgG fusion protein. Serum concentration determined by this method correlated well with the concentration determined by LC/MS/MS methodologies.

[4] = system: eosinophil infiltration; assay: Eosinophil accumulation model in the rat (Compound 48/80 injected into pleural cavities); type: in vivo, male Sprague Dawley rats; conditions: b.i.d. at 0 and 8 hours
Protocol: The compounds of the present invention may also be further characterized in other in vivo assays, such as the eosioophil accumulation model tested in the rat. Fifty μg of Compound 48/80 was injected into the pleural cavities of male Sprague Dawley rats. After 24 hrs, each cavity was washed twice with Hank's Balanced Salt Solution containing 0.2% EDTA. Total cell and eosinophil counts were determined. Test compounds were given intraveneously, orally or subcutaneously, b.i.d. at 0 and 8 hours.

[5] = Pharmacokinetic evaluation in mouse; type: in vivo; conditions: for AUC (total area under the plasma concentration versus time curve): LC/MS/MS; for clearance / MRT: plasma; for clearance: read-out: CL (apparent plasma clearance); for MRT: read-out: MRT (mean residence time)
[6] = in vivo; conditions: female, Balb/c, mouse, po, 10 mg/kg
Protocol: as §1

[7] = in vivo; conditions: monkey, 2 mg/kg
[8] = Pharmacokinetic evaluation in monkey, single intravenous dosage; conditions: single intravenous dosage (2 mg/kg), LC/MS/MS
[9] = system: VLA-4-expressing cells; conditions: Wang et al. 1995; cited from earlier work
[10] = system: VLA-4-mediated lymphocyte adherence; conditions: Molossi et al. 1995; cited from earlier work
[11] = system: accelerated coronary arteriopathy; conditions: Molossi et al. 1995; cited from earlier work
[12] = 10 mg/kg (p.o.), line of AUC 0–6 hr
[13] = 10 mg/kg (p.o.), line of AUC 0–∞
[14] = iv, 10 mg/kg (i.v.), line of AUC 0–6 hr
[15] = iv, 10 mg/kg (i.v.), line of AUC 0–∞
[16] = po, 10 mg/kg (p.o.), line of AUC 0–6 hr
[17] = po, 10 mg/kg (p.o.), line of AUC 0–∞
[18] = female, Balb/c, serum, po, 10 mg/kg
[19] = iv, 10 mg/kg, 10 mg/kg (i.v.), line of AUC 0–6 hr
[20] = iv, 10 mg/kg, 10 mg/kg (i.v.), line of AUC 0–∞

melting point: 141 to 145 °C
Compound: COc1cc(C(=O)O)ccc1C#CC1CCCN1C(=O)Cc1ccc(NC(=O)Nc2ccccc2C)c(OC)c1 (stereo not shown) [Compound 36, 3-methoxy4-[2-[1-[3-methoxy4-[N′-(2-methylphenyl)ureido]phenylacetyl]-2-pyrrolidinyl]ethynyl]benzoic acid]
inhibition of eosinophil infiltration ([1]; oral dosage of 30 mg/kg): 49%

AUC (total area under the plasma concentration versus time curve) ([2]; 10 mg/kg (i.v.), 0–6 hr): 5259 (0–6 hr) ng · h/mL
AUC (total area under the plasma concentration versus time curve) ([2]; 10 mg/kg (i.v.), 0–∞): 5389 (0–∞) ng · h/mL
AUC (total area under the plasma concentration versus time curve) ([2]; 10 mg/kg (p.o.), 0–6 hr): 22119 (0–6 hr) ng · h/mL
AUC (total area under the plasma concentration versus time curve) ([2]; 10 mg/kg (p.o.), 0–∞): 24867 (0–∞) ng · h/mL
CL (apparent plasma clearance) [2, 12]: 8.5 mL/min/kg
CL (apparent plasma clearance) [2, 13]: 6.7 mL/min/kg
clearance [2, 14]: 31.7 mL/min/kg
MRT [2, 14]: 24 min
clearance [2, 15]: 30.9 mL/min/kg
MRT [2, 15]: 36 min
MRT [2, 16]: 30 min
MRT [2, 17]: 42 min
concentration at 15 min [3, 18]: 618 ng/mL
Compound: Cc1cc(CC(=O)N2C[C@@H](F)C[C@H]2COc2ccc(C(=O)O)cc2)ccc1NC(=O)Nc1ccccc1Cl [Compound 79, 4-[1-[4-[N′-(2-chlorophenyl)ureido]-3-methylphenylacetyl]-(4S)-fluoro-(2S)-pyrrolidinyl]methoxybenzoic acid]
% Inhibition of Eosinophil Infiltration ([1]; 30 mg/kg b.i.d. × 2 days, i.v.): 35.9%

AUC (total area under the plasma concentration versus time curve) ([5]; 10 mg/kg (i.v.), 0–6 hr): 5259 (0–6 hr) ng · h/mL
AUC (total area under the plasma concentration versus time curve) ([5]; 10 mg/kg (i.v.), 0–∞): 5389 (0–∞) ng · h/mL
AUC (total area under the plasma concentration versus time curve) ([5]; 20 mg/kg (p.o.), 0–6 hr): 2190 (0–6 hr) ng · h/mL
AUC (total area under the plasma concentration versus time curve) ([5]; 20 mg/kg (p.o.), 0–∞): 3615 (0–∞) ng · h/mL
CL (apparent plasma clearance) ([5]; 20 mg/kg (p.o.), line of AUC 0–6 hr): 152.24 mL/min/kg
CL (apparent plasma clearance) ([5]; 20 mg/kg (p.o.), line of AUC 0–∞): 92.21 mL/min/kg
clearance [5, 19]: 31.7 mL/min/kg
MRT [5, 19]: 24 min
clearance [5, 20]: 30.9 mL/min/kg
MRT [5, 20]: 36 min
MRT ([5]; po, 20 mg/kg, 20 mg/kg (p.o.), line of AUC 0–6 hr): 138 min
MRT ([5]; po, 20 mg/kg, 20 mg/kg (p.o.), line of AUC 0–∞): 390 min
concentration at 15 min [3, 18]: 693 ng/mL
Compound: Cc1cc(CC(=O)N2C[C@@H](F)C[C@H]2COc2ccc(C(=O)O)cc2)ccc1NC(=O)Nc1ccccc1Br [Compound 80, 4-[1-[4-[N′-(2-bromophenyl)ureido]-3-methylphenylacetyl]-(4S)-fluoro-(2S)-pyrrolidinyl]methoxybenzoic acid]
% Inhibition of Eosinophil Infiltration ([4]; 50 mg/kg 2 days, s.c.): 65.3%

Compound: Cc1ccccc1NC(=O)Nc1ccc(CC(=O)N2C[C@@H](F)C[C@H]2COc2ccc(C(=O)O)cc2)cc1Cl [Compound 90, 4-[1-[3-chloro-4-[N′-(2-methylphenyl)ureido]phenylacetyl]-(4S)-fluoro-(2S)-pyrrolidinyl]methoxybenzoic acid]
% Inhibition of Eosinophil Infiltration ([1]; 10 mg/kg t.i.d. × 2 days, p.o.): 18.1%
% Inhibition of Eosinophil Infiltration ([1]; 30 mg/kg b.i.d. × 2 days, i.v.): 47.3%
% Inhibition of Eosinophil Infiltration ([1]; 30 mg/kg t.i.d. × 2 days, p.o.): 39.1%
% Inhibition of Eosinophil Infiltration ([1]; 50 mg/kg t.i.d. × 2 days, p.o.): 45.9%
% Inhibition of Eosinophil Infiltration ([4]; 3 mg/kg 2 days, i.v.): 25.4%
% Inhibition of Eosinophil Infiltration ([4]; 10 mg/kg 2 days, i.v.): 46.7%
% Inhibition of Eosinophil Infiltration ([4]; 30 mg/kg 2 days, i.v.): 83.7%
% Inhibition of Eosinophil Infiltration ([4]; 50 mg/kg 2 days, p.o.): 50.5%
AUC (total area under the plasma concentration versus time curve) ([5]; 10 mg/kg (i.v.), 0–6 hr): 8995 (0–6 hr) ng · h/mL
AUC (total area under the plasma concentration versus time curve) ([5]; 10 mg/kg (i.v.), 0–∞): 9219 (0–∞) ng · h/mL
AUC (total area under the plasma concentration versus time curve) ([5]; 10 mg/kg (p.o.), 0–6 hr): 2540 (0–6 hr) ng · h/mL
AUC (total area under the plasma concentration versus time curve) ([5]; 10 mg/kg (p.o.), 0–∞): 2950 (0–∞) ng · h/mL
CL (apparent plasma clearance) [5, 12]: 65.62 mL/min/kg
CL (apparent plasma clearance) [5, 13]: 56.50 mL/min/kg
clearance [5, 19]: 18.5 mL/min/kg
MRT [5, 19]: 30 min
clearance [5, 20]: 18.1 mL/min/kg
MRT [5, 20]: 42 min
MRT ([5]; po, 10 mg/kg, 10 mg/kg (p.o.), line of AUC 0–6 hr): 72 min
MRT ([5]; po, 10 mg/kg, 10 mg/kg (p.o.), line of AUC 0–∞): 150 min
AUC (total area under the plasma concentration versus time curve) ([2]; 10 mg/kg (i.v.), 0–6 hr): 31915 (0–6 hr) ng · h/mL
AUC (total area under the plasma concentration versus time curve) ([2]; 10 mg/kg (i.v.), 0–∞): 33488 (0–∞) ng · h/mL
AUC (total area under the plasma concentration versus time curve) ([2]; 10 mg/kg (p.o.), 0–6 hr): 11454 (0–6 hr) ng · h/mL
AUC (total area under the plasma concentration versus time curve) ([2]; 10 mg/kg (p.o.), 0–∞): 19968 (0–∞) ng · h/mL
CL (apparent plasma clearance) [2, 12]: 17.85 mL/min/kg
CL (apparent plasma clearance) [2, 13]: 9.99 mL/min/kg
clearance [2, 14]: 5.23 mL/min/kg
MRT [2, 14]: 48 min
clearance [2, 15]: 4.98 mL/min/kg
MRT [2, 15]: 66 min
MRT [2, 16]: 102 min
MRT [2, 17]: 528 min
Serum Concentration ([3]; oral, 10 mg/kg, 15 minutes post-administration): 3659 ng/mL

concentration at 15 min [3, 18]: 2160 ng/mL
Compound: O=C(Nc1ccc(CC(=O)N2C[C@@H](F)C[C@H]2COc2ccc(C(=O)O)cc2)cc1Cl)Nc1ccccc1Br [Compound 92, 4-[1-[4-[N′-(2-bromophenyl)ureido]-3-chlorophenylacetyl]-(4S)-fluoro-(2S)-pyrrolidinyl]methoxybenzoic acid]
% Inhibition of Eosinophil Infiltration ([4]; 50 mg/kg 2 days, s.c.): 43.1%

Compound: O=C(Nc1ccccc1Cl)Nc1ccc(CC(=O)N2C[C@@H](F)C[C@H]2COc2ccc(C(=O)O)cc2)cc1Br [Compound 95, 4-[1-[3-bromo-4-[N′-(2-chlorophenyl)ureido]phenylacetyl]-(4S)-fluoro-(2S)-pyrrolindinyl]methoxybenzoic acid]
% Inhibition of Eosinophil Infiltration ([4]; 50 mg/kg 2 days, s.c.): 40.9%

Compound: COC(=O)c1ccc(OC[C@@H]2C[C@@H](N(C)C)CN2C(=O)Cc2ccc(NC(=O)Nc3ccccc3C)c(OC)c2)cc1 [Compound 156, methyl 4-[trans-4-dimethylamino-1-[3-methoxy-4-[N′-(2-methylphenyl)ureido]phenylacetyl]-(2S)-pyrrolidinyl]methoxybenzoate HCl salt]
concentration at 15 min [6]: 285 ng/mL

clearance ([7]; plasma, iv): 4 mL/min/kg
concentration at 5 min ([7]; serum, intravenous): 65400 ng/mL
concentration at 30 min ([7]; serum, intravenous): 3900 ng/mL
concentration at 1 hr ([7]; serum, intravenous): 2220 ng/mL
concentration at 2 hr ([7]; serum, intravenous): 772 ng/mL
concentration at 4 hr ([7]; serum, intravenous): 194 ng/mL
concentration at 8 hr ([7]; serum, intravenous): 28 ng/mL
AUC (total area under the plasma concentration versus time curve) [8]: 8405 ng·h/mL
Compound: COc1cc(CC(=O)N2CC(O)C(O)C2C(=O)N2CCN(CC(=O)O)CC2)ccc1NC(=O)Nc1ccccc1C (stereo not shown) [Compound 195]

Compound: C=CCN(CCOc1ccc(C(=O)O)cc1)C(=O)Cc1ccc(NC(=O)Nc2ccccc2Br)c(OC)c1 [Compound 311, 4-[2-N-allyl-N-[4-[N′(2-bromophenyl)ureido]-3-methoxyphenyl]acetamido]ethoxybenzoic acid]
% Inhibition of Eosinophil Infiltration ([1]; 50 mg/kg t.i.d. × 2 days, p.o.): 42.5%
% Inhibition of Eosinophil Infiltration ([1]; 50 mg/kg t.i.d. × 2 days, s.c., 50 mg/kg): 80.2% and 49.3%

concentration at 30 min ([3]; female, Balb/c, serum, po, 50 mg/kg): 2310 ng/mL
Compound: COC(=O)c1ccc(OCCN(CCN2CCOCC2)C(=O)Cc2ccc(NC(=O)Nc3ccccc3C)c(OC)c2)cc1 [Compound 314, methyl 4-[2-N-[2-(4-morpholinyl)ethyl]-N-[3-methoxy-4-[N′-(2-methylphenyl)ureido]phenyl]-acetamido]ethoxybenzoate]
% Inhibition of Eosinophil Infiltration ([1]; 50 mg/kg t.i.d. × 2 days, p.o.): 18.9%

Compound: CQIDSPC [Synthetic VCAM-1 peptide]
adhesion of VLA-4-expressing cells to purified VCAM-1 [9]: inhibit the adhesion

Compound: phenylacetic acid-Leu-Asp-Phe-d-Pro-amide
VLA-4-mediated lymphocyte adherence in vitro [10]: inhibited
accelerated coronary arteriopathy in rabbit cardiac allografts [11]: reduced

From US7179819B2, “VLA-4 inhibitor compounds” (Daiichi Pharmaceutical Co., Ltd., priority 1999, dated 2007)
